Data reported in US6355799B1, “Substituted benzene compounds, process for their preparation, and herbicidal and defoliant compositions containing them” (ISK Americas Incorporated, priority 1997, dated 2002).

Tests used:
Format in all cases: in vivo
[1] = test system: field corn (Zea mays L., var. Dekalb 535, CORN); test: Pre-emerge test, crop safety; conditions: rated 14 days after application, 0 = no damage, 100 = complete death
In short: (§1)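 Plants grown in 10 cm pots of sandy loam mix received acetone-dissolved compounds through a moving flat-fan nozzle. Doses ranged from 15 to 1000 g ai/ha. Pre-emerge pots were seeded one day earlier, post-emerge pots 8–21 days earlier. Fourteen days on, each pot was graded 0–100 for damage.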

[2] = test system: upland rice (Oryza sp., var. Tebonnet, RICE); test: Pre-emerge test, crop safety; conditions: rated 14 days after application, 0 = no damage, 100 = complete death
In short: as §1

[3] = test system: barnyardgrass (Echinochloa crus-galli, ECHCG); test: Pre-emerge test, greenhouse herbicide activity screening; conditions: rated 14 days after application, 0 = no damage, 100 = complete death
In short: (§2)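 Visual ratings on a 0-100 scale (0 no damage, 100 all plants dead) were taken at 14 days after treatment. Rates of 15-1000 g ai/ha in acetone, 187 l/ha, were sprayed onto soil one day after planting (pre-emerge) or onto 2-3 leaf plants with 0.25% v/v surfactant (post-emerge).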

[4] = test system: sicklepod (Cassia obtusifolia, CASOB); test: as above; conditions: rated 14 days after application, 0 = no damage, 100 = complete death
In short: as §2

[5] = test system: ivyleaf morningglory (Ipomoea hederacea, IPOHE); test: as above; conditions: rated 14 days after application, 0 = no damage, 100 = complete death
In short: as §2

[6] = test system: green foxtail (Setaria viridis, SETVI); test: as above; conditions: rated 14 days after application, 0 = no damage, 100 = complete death
In short: as §2

[7] = test system: common ragweed (Ambrosia artemisizfolia L., AMBEL); test: as above; conditions: rated 14 days after application, 0 = no damage, 100 = complete death
In short: as §2

[8] = test system: large crabgrass (Digitaria sanguinalis, DIGSA); test: as above; conditions: rated 14 days after application, 0 = no damage, 100 = complete death
In short: as §2

[9] = test system: johnsongrass (Sorghum halepense, SORHA); test: as above; conditions: rated 14 days after application, 0 = no damage, 100 = complete death
In short: as §2

[10] = test system: velvetleaf (Abutilon theophrasti, ABUTH); test: as above; conditions: rated 14 days after application, 0 = no damage, 100 = complete death
In short: as §2

[11] = test system: lambsquarters (Chenopodium album, CHEAL); test: as above; conditions: rated 14 days after application, 0 = no damage, 100 = complete death
In short: as §2

[12] = test system: barnyardgrass (Echinochloa crus-galli, ECHCG); test: Post-emerge test, greenhouse herbicide activity screening; conditions: post-emerge, 14 days after application, rating scale 0-100
In short: (§3)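 Fourteen days after spraying, crop and weed injury was graded visually from 0, no effect, to 100, every plant dead. Test substances were dissolved in acetone and applied at 15–1000 g ai/ha with a flat-fan nozzle. Application was either pre-emergence, one day after sowing, or post-emergence at the 2–3 leaf stage.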

[13] = test system: redroot pigweed (Amaranthus retroflexus, AMARE); test: as above; conditions: post-emerge, 14 days after application, rating scale 0-100
In short: as §3

[14] = test system: sicklepod (Cassia obtusifolia, CASOB); test: as above; conditions: post-emerge, 14 days after application, rating scale 0-100
In short: as §3

[15] = test system: ivyleaf morningglory (Ipomoea hederacea, IPOHE); test: as above; conditions: post-emerge, 14 days after application, rating scale 0-100
In short: as §3

[16] = test system: green foxtail (Setaria viridis, SETVI); test: as above; conditions: post-emerge, 14 days after application, rating scale 0-100
In short: as §3

[17] = test system: common ragweed (Ambrosia artemisizfolia L., AMBEL); test: as above; conditions: post-emerge, 14 days after application, rating scale 0-100
In short: as §3

[18] = test system: large crabgrass (Digitaria sanguinalis, DIGSA); test: as above; conditions: post-emerge, 14 days after application, rating scale 0-100
In short: as §3

[19] = test system: johnsongrass (Sorghum halepense, SORHA); test: as above; conditions: post-emerge, 14 days after application, rating scale 0-100
In short: as §3

[20] = test system: velvetleaf (Abutilon theophrasti, ABUTH); test: as above; conditions: post-emerge, 14 days after application, rating scale 0-100
In short: as §3

[21] = test system: lambsquarters (Chenopodium album, CHEAL); test: as above; conditions: post-emerge, 14 days after application, rating scale 0-100
In short: as §3

[22] = test system: field corn (Zea mays L., var. Dekalb 535, CORN); test: Post-emerge test, crop safety; conditions: post-emerge, 14 days after application, rating scale 0-100
In short: as §2

[23] = test system: upland rice (Oryza sp., var. Tebonnet, RICE); test: Post-emerge test, crop safety; conditions: post-emerge, 14 days after application, rating scale 0-100
In short: as §2

[24] = test system: redroot pigweed (Amaranthus retroflexus, AMARE); test: Pre-emerge test, greenhouse herbicide activity screening; conditions: rated 14 days after application, 0 = no damage, 100 = complete death
In short: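 Herbicidal damage is scored 0 (none) to 100 (complete plant death) two weeks after a simulated field spray. Rates span 15–1000 g ai/ha, delivered in acetone at 187 l/ha. For post-emergence treatments, plants have 2–3 leaves and the spray carries 0.25% v/v non-ionic surfactant.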

In the case of COc1c(Cl)cc(F)c(-n2c(=O)cc(C(F)(F)F)n(C)c2=O)c1NC(=O)c1c(F)cccc1F [2-47], the “Pre-emerge phytotoxicity rating (0-100), crop damage, CORN” value ([1]; 63 g ai/ha) is reported as 40, the “Pre-emerge phytotoxicity rating (0-100), crop damage, CORN” value ([1]; 250 g ai/ha) is reported as 99 and the “Pre-emerge phytotoxicity rating (0-100), crop damage, RICE” value ([2]; 63 g ai/ha) is reported as 70. The “Pre-emerge phytotoxicity rating (0-100), crop damage, RICE” value ([2]; 250 g ai/ha) was 95, the “Pre-emerge Herbicidal Activity, phytotoxicity rating (0-100), ECHCG” value ([3]; 63 g ai/ha) was 0 and the “Pre-emerge Herbicidal Activity, phytotoxicity rating (0-100), ECHCG” value ([3]; 250 g ai/ha) was 99. The “Pre-emerge Herbicidal Activity, phytotoxicity rating (0-100), CASOB” value ([4]; 63 g ai/ha) was 90, the “Pre-emerge Herbicidal Activity, phytotoxicity rating (0-100), CASOB” value ([4]; 250 g ai/ha) was 100 and the “Pre-emerge Herbicidal Activity, phytotoxicity rating (0-100), IPOHE” value ([5]; 63 g ai/ha) was 100. For the same compound, the “Pre-emerge Herbicidal Activity, phytotoxicity rating (0-100), IPOHE” value ([5]; 250 g ai/ha) was 100, the “Pre-emerge Herbicidal Activity, phytotoxicity rating (0-100), SETVI” value ([6]; 63 g ai/ha) was 100 and the “Pre-emerge Herbicidal Activity, phytotoxicity rating (0-100), SETVI” value ([6]; 250 g ai/ha) was 100. For the same compound, the “Pre-emerge Herbicidal Activity, phytotoxicity rating (0-100), AMBEL” value ([7]; 63 g ai/ha) was 50, the “Pre-emerge Herbicidal Activity, phytotoxicity rating (0-100), AMBEL” value ([7]; 250 g ai/ha) was 100 and the “Pre-emerge Herbicidal Activity, phytotoxicity rating (0-100), DIGSA” value ([8]; 63 g ai/ha) was 100. For the same compound, the “Pre-emerge Herbicidal Activity, phytotoxicity rating (0-100), DIGSA” value ([8]; 250 g ai/ha) was 100, the “Pre-emerge Herbicidal Activity, phytotoxicity rating (0-100), SORHA” value ([9]; 63 g ai/ha) was 60 and the “Pre-emerge Herbicidal Activity, phytotoxicity rating (0-100), SORHA” value ([9]; 250 g ai/ha) was 90. For the same compound, the “Pre-emerge Herbicidal Activity, phytotoxicity rating (0-100), ABUTH” value ([10]; 63 g ai/ha) was 100, the “Pre-emerge Herbicidal Activity, phytotoxicity rating (0-100), ABUTH” value ([10]; 250 g ai/ha) was 100 and the “Pre-emerge Herbicidal Activity, phytotoxicity rating (0-100), CHEAL” value ([11]; 63 g ai/ha) was 100. For the same compound, the “Pre-emerge Herbicidal Activity, phytotoxicity rating (0-100), CHEAL” value ([11]; 250 g ai/ha) was 100, the “phytotoxicity rating ECHCG” value ([12]; 63 g ai/ha) was 0 and the “phytotoxicity rating ECHCG” value ([12]; 250 g ai/ha) was 10. For the same compound, the “phytotoxicity rating AMARE” value ([13]; 63 g ai/ha) was 90, the “phytotoxicity rating AMARE” value ([13]; 250 g ai/ha) was 100 and the “phytotoxicity rating CASOB” value ([14]; 63 g ai/ha) was 70. The “phytotoxicity rating CASOB” value ([14]; 250 g ai/ha) was 100, the “phytotoxicity rating IPOHE” value ([15]; 63 g ai/ha) was 70 and the “phytotoxicity rating IPOHE” value ([15]; 250 g ai/ha) was 100. For the same compound, the “phytotoxicity rating SETVI” value ([16]; 63 g ai/ha) was 20, the “phytotoxicity rating SETVI” value ([16]; 250 g ai/ha) was 30 and the “phytotoxicity rating AMBEL” value ([17]; 63 g ai/ha) was 50. The “phytotoxicity rating AMBEL” value ([17]; 250 g ai/ha) was 90, the “phytotoxicity rating DIGSA” value ([18]; 63 g ai/ha) was 0 and the “phytotoxicity rating DIGSA” value ([18]; 250 g ai/ha) was 0. For the same compound, the “phytotoxicity rating SORHA” value ([19]; 63 g ai/ha) was 0, the “phytotoxicity rating SORHA” value ([19]; 250 g ai/ha) was 0 and the “phytotoxicity rating ABUTH” value ([20]; 63 g ai/ha) was 100. The “phytotoxicity rating ABUTH” value ([20]; 250 g ai/ha) was 100, the “phytotoxicity rating CHEAL” value ([21]; 63 g ai/ha) was 80 and the “phytotoxicity rating CHEAL” value ([21]; 250 g ai/ha) was 100. For the same compound, the “phytotoxicity rating CORN” value ([22]; 63 g ai/ha) was 10, the “phytotoxicity rating CORN” value ([22]; 250 g ai/ha) was 15 and the “phytotoxicity rating RICE” value ([23]; 63 g ai/ha) was 20. The “phytotoxicity rating RICE” value ([23]; 250 g ai/ha) was 45, the “Pre-emerge Herbicidal Activity, phytotoxicity rating (0-100), AMARE” value ([24]; 63 g ai/ha) was 100 and the “Pre-emerge Herbicidal Activity, phytotoxicity rating (0-100), AMARE” value ([24]; 250 g ai/ha) was 100.
